Measured values reported in patent US20100047374A1, “COMPOSITION FOR PROTECTING MUSCLE DAMAGE” (priority 2007, published 2010).

Columns and labels:
[1] = system: IL-6; test: Muscle damage-protecting effect using myotube cell: IL-6 gene expression by quantitative real time PCR after H2O2 treatment; assay type: cell-based, mouse; conditions: C2C12 myotube cell, 10 μg/ml for 24 hours, then 1 mM H2O2 for 2 hours, relative to GAPDH, compared to hydrogen peroxide group, FIGS. 3 and 4
Experimental: (§1) In this evaluation system, the C2C12 myoblast cell line derived from a mouse was used. The cell line is preserved in RIKEN BIORESOURCE CENTER, Japan, and the cell line can be shared. The cell is differentiated from a mononuclear myoblast cell into a maltinuclear myotube cell by differentiation induction, to thereby have a muscle fiber-like form. The cell was seeded in a collagen I-coated 35-mm dish and cultured in DMEM (11965-092, manufactured by GIBCO)+10% FBS (hereinafter, may be referred to as a growth medium) at 37° C. under 5% CO2 until the culture had 90% confluence. […] The concentration of the purified total RNA was determined based on the measurement results of the absorbance (260 nm, 280 nm). […] A quantitative real time PCR was performed by using the obtained cDNA. In the quantitative real time PCR, qPCR super mix-UDG with ROX was used as a reaction reagent, as primers for IL-6 and CXCL-1, Mm00446190 (manufactured by AB Corporation) and Mm00433859 (manufactured by AB Corporation) were used, respectively, and as a primer for […] (hereinafter, may be referred to as GAPDH) which was used as an internal standard, Mm99999915 (manufactured by AB Corporation) was used. […]

[2] = system: CXCL-1; test: Muscle damage-protecting effect using myotube cell: CXCL-1 gene expression by quantitative real time PCR after H2O2 treatment; assay type: cell-based, mouse; conditions: C2C12 myotube cell, 10 μg/ml for 24 hours, then 1 mM H2O2 for 2 hours, relative to GAPDH, compared to hydrogen peroxide group, FIG. 4
Experimental: as §1

For `CCCCCCCCCCCCCCC[C@@H](O)[C@@H](N)CO` (single isomer, unassigned) [sphinganine], which “gene expression of IL-6” value [1] is on record?
The value was “effect of inhibiting”.

And the “gene expression of CXCL-1” value [2]?
The value was “effect of inhibiting”.
